Experimental data: publication PMC6328375 (Molecular pharmaceutics, 2017)
Several values for one entry are separate records, joined by “and”; a condition that tells them apart may be missing. Identical values can stand only once. Counter-ions that a name gives are not always drawn.

Legend:
[1] = target: T1, OCT1 (Homo sapiens, UniProt O15245); test: Inhibition of [14C]-metformin uptake in HEK293 cells expressing OCT1; type: cell-based
T1 sequence (O15245 1-554): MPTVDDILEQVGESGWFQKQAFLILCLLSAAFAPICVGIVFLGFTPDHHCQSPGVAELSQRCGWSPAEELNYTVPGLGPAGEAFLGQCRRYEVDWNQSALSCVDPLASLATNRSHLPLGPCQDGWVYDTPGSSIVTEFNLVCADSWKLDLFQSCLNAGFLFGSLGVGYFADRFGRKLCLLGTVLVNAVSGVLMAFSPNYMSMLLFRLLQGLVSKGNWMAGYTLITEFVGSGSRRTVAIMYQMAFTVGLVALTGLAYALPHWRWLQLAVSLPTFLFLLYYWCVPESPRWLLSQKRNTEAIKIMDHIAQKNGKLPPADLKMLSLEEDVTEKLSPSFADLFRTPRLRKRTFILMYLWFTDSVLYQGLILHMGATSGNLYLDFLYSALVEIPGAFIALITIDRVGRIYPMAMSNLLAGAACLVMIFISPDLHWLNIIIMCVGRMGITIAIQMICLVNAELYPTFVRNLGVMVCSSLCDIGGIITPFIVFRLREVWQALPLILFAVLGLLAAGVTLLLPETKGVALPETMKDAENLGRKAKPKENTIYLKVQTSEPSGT

[2] = target: T1, OCT1; test: Uptake in HEK293 cells overexpressing OCT1; type: in vitro ADME; details: for P, OCT1 / Vmax, OCT1 / P (non-saturable clearance parameter), OCT1 / Vmax (maximum uptake rate), OCT1 / Km: HEK293-OCT1, 0.1–1000 μM; for Vmax (maximum uptake rate), OCT1: estimate ± standard error (n = 6); for Km: read-out: Km (Michaelis-Menten constant), OCT1; for Time dependent uptake in HEK-OCT1 cells versus empty vector controls (HEK-P5): 5 μM MPP+ or 50 μM metformin, 1–30 min
[3] = target: T2, OCT2 (Homo sapiens, UniProt O15244); test: Uptake in HEK293 cells overexpressing OCT2; type: in vitro ADME; details: for P, OCT2 / Vmax, OCT2 / P (non-saturable clearance parameter), OCT2 / Vmax (maximum uptake rate), OCT2 / Km: HEK293-OCT2, 0.1–1000 μM; for Vmax (maximum uptake rate), OCT2: estimate ± standard error (n = 6); for Km: read-out: Km (Michaelis-Menten constant), OCT2; for Time dependent uptake in HEK-OCT2 cells versus empty vector controls (HEK-P5): 5 μM MPP+ or 50 μM metformin, 1–30 min
T2 sequence (O15244 1-555): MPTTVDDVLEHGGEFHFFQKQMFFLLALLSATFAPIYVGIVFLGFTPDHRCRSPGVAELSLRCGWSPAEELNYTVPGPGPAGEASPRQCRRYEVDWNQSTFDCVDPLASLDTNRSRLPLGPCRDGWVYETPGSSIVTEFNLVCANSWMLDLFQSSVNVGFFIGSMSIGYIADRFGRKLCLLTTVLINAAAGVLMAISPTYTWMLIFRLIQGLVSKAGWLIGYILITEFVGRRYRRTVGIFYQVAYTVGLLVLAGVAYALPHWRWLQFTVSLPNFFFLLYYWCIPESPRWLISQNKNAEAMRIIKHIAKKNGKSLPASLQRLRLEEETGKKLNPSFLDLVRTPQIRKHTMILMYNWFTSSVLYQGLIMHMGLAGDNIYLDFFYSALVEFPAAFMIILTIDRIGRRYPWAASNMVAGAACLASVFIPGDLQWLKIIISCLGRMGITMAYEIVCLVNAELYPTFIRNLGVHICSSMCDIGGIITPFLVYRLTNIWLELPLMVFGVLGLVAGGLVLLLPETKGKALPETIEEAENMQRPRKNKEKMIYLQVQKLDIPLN

[4] = target: T3, OCT3 (Homo sapiens, UniProt O75751); test: Uptake in HEK293 cells stably overexpressing OCT3; type: in vitro ADME; details: 100 μM
T3 sequence (O75751 1-556): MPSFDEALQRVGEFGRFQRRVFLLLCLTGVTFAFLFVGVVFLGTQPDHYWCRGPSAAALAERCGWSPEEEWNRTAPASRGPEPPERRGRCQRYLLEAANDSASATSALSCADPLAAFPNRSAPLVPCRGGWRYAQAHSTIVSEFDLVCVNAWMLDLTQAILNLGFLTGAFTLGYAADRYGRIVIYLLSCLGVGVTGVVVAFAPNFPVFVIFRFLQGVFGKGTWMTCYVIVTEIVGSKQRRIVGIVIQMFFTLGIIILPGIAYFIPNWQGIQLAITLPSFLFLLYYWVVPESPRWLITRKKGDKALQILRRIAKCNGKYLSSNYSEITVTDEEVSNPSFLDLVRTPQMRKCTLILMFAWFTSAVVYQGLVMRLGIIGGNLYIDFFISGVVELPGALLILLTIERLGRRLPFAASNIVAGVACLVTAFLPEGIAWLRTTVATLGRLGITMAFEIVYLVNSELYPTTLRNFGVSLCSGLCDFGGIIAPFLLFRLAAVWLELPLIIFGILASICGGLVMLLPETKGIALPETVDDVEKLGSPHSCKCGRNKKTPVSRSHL

[5] = target: T2, OCT2; details: 50 μM compound, 5 μM MPP+, biguanide vs parent amine
[6] = target: T2, OCT2; test: Inhibition of [14C]-metformin uptake in HEK293 cells expressing OCT2; type: cell-based; details: for inhibition at 50 μM: human, HEK293 cells expressing OCT2
[7] = target: T1, OCT1; test: Inhibition of [3H]-MPP+ uptake in HEK293 cells expressing OCT1; type: cell-based; details: 50 μM compound, 5 μM MPP+, biguanide vs parent amine
[8] = cited from earlier work
[9] = 50 μM compound, 50 μM metformin

In the case of `N=C(N)NC(=N)NCCCc1ccccc1` [2c, 1-(3-Phenylpropyl)-biguanide HCl], the inhibition at 50 μM ([1]; human, HEK293 cells expressing OCT1) is reported as at least 50%.

In the case of `N=C(N)NC(=N)NCC(c1ccccc1)c1ccccc1` [2f, 2,2-Diphenylethyl-biguanide], the “P, OCT1” value [2] is reported as 1.7 fl/min/mg protein, the “Vmax, OCT1” value [2] is reported as 2.0 pmol/min/mg protein and the “P (non-saturable clearance parameter), OCT1” value ([2]; 10 min) is reported as 1.7e-09 ± 2e-10 µL/min/mg. For the same compound, the “Vmax (maximum uptake rate), OCT1” value ([2]; 10 min) was 2.0 ± 0.1 pmol/mg/min, the Km ([2]; 10 min) was 14.2 µM and 14 µM and the “P, OCT2” value [3] was 0.6 fl/min/mg protein. For the same compound, the “Vmax, OCT2” value [3] was 1.8 pmol/min/mg protein, the “P (non-saturable clearance parameter), OCT2” value ([3]; 10 min) was 6e-10 ± 3e-10 µL/min/mg and the “Vmax (maximum uptake rate), OCT2” value ([3]; 10 min) was 1.8 ± 0.2 pmol/mg/min. For the same compound, the Km ([3]; 10 min) was 12.4 µM and 12 µM and the OCT3 substrate [4] was “either none or very weak substrates”.

With `N=C(N)NC(=N)NCCc1ccc(-c2ccccc2)cc1` [2g, 2-(4-Biphenyl)ethyl-biguanide] the “Change of inhibition of OCT2-mediated uptake of MPP+ upon addition of the biguanide moiety” value [5] was “less inhibition”.

In the case of `N=C(N)NC(=N)NCCOc1ccccc1` [2h, 1-(2-Phenoxyethyl)-biguanide], the inhibition at 50 μM [6] is reported as at least 50% and the “Change of inhibition of OCT1-mediated uptake of MPP+ upon addition of the biguanide moiety” value [7] is reported as “increased inhibition”.

For `Cl.N=C(N)NC(=N)NC1Cc2ccccc2C1` [2j, 2,3-Dihydro-1H-inden-2-yl-biguanide HCl], the “P, OCT1” value [2] was 0.6 fl/min/mg protein, the “Vmax, OCT1” value [2] was 0.3 pmol/min/mg protein and the “P (non-saturable clearance parameter), OCT1” value ([2]; 10 min) was 6e-10 ± 8e-11 µL/min/mg. For the same compound, the “Vmax (maximum uptake rate), OCT1” value ([2]; 10 min) was 0.3 ± 0.05 pmol/mg/min, the Km ([2]; 10 min) was 16.9 µM and 17 µM and the “P, OCT2” value [3] was 0.1 fl/min/mg protein. The “Vmax, OCT2” value [3] was 1.1 pmol/min/mg protein, the “P (non-saturable clearance parameter), OCT2” value ([3]; 10 min) was 1e-10 ± 5e-11 µL/min/mg and the “Vmax (maximum uptake rate), OCT2” value ([3]; 10 min) was 1.1 ± 0.04 pmol/mg/min. The Km ([3]; 10 min) was 31.7 µM and 32 µM, the “Inhibition of metformin transport in HEK-OCT1 cells” value [1, 9] was at least 50% and the “Inhibition of metformin transport in HEK-OCT2 cells” value [6, 9] was at least 50%. The OCT3 substrate [4] was “either none or very weak substrates” and the “Uptake fold ratio in OCT3 cells” value ([4]; single concentration) was “significant increase”.

For `N=C(NN)Nc1ccc(C(=O)O)cc1` [2m, p-(3-Aminoguanidino)-benzoic Acid], the “Inhibition of OCT1 mediated metformin uptake” value [1, 9] was “inhibited” and the “Inhibition of OCT2 mediated metformin uptake” value [6, 9] was “only inhibited OCT1”.

For `C[n+]1ccc(-c2ccccc2)cc1` [MPP^+, 1-methyl-4-phenylpyridinium, reference compound], the “Time dependent uptake in HEK-OCT1 cells versus empty vector controls (HEK-P5)” value [2] was “higher” and the “Time dependent uptake in HEK-OCT2 cells versus empty vector controls (HEK-P5)” value [3] was “higher”.

In the case of `CN(C)C(=N)N=C(N)N` [metformin, reference compound], the “Time dependent uptake in HEK-OCT1 cells versus empty vector controls (HEK-P5)” value [2] is reported as “higher” and the “Time dependent uptake in HEK-OCT2 cells versus empty vector controls (HEK-P5)” value [3] is reported as “higher”.

With `[H]/N=C(/N)N/C(=N/[H])NCCc1ccccc1` [phenformin, reference compound] the “OCT1 substrate (fold uptake increase of 1.5 and greater over HEK-P5)” value ([2]; 100 μM, 10 min, HEK-OCT1 vs empty vector) was “substrates”, the “OCT2 substrate (fold uptake increase of 1.5 and greater over HEK-P5)” value ([3]; 100 μM, 10 min, HEK-OCT2 vs empty vector) was “substrates” and the inhibition at 50 μM [6] was at least 50%. The “Change of inhibition of OCT1-mediated uptake of MPP+ upon addition of the biguanide moiety” value [7] was “increased inhibition” and the “Change of inhibition of OCT2-mediated uptake of MPP+ upon addition of the biguanide moiety” value [5] was “less inhibition”.

For `CC(C)[C@H](N)C(=O)OCCOCn1cnc2c(=O)[nH]c(N)nc21` [valacyclovir], the Oral bioavailability [8] is listed as 50%.
